Assays:
[1] = target: T1, HMG Co-A Reductase (Rattus norvegicus, UniProt P51639); experiment: Measurement of inhibiting effect on HMG Co-A reductase (inhibiting ratio of biosynthesis of cholesterol); format: biochemical; conditions: 0.1 μM samples, compactin = 100
T1 construct: from tissue
T1 sequence (P51639 1-887): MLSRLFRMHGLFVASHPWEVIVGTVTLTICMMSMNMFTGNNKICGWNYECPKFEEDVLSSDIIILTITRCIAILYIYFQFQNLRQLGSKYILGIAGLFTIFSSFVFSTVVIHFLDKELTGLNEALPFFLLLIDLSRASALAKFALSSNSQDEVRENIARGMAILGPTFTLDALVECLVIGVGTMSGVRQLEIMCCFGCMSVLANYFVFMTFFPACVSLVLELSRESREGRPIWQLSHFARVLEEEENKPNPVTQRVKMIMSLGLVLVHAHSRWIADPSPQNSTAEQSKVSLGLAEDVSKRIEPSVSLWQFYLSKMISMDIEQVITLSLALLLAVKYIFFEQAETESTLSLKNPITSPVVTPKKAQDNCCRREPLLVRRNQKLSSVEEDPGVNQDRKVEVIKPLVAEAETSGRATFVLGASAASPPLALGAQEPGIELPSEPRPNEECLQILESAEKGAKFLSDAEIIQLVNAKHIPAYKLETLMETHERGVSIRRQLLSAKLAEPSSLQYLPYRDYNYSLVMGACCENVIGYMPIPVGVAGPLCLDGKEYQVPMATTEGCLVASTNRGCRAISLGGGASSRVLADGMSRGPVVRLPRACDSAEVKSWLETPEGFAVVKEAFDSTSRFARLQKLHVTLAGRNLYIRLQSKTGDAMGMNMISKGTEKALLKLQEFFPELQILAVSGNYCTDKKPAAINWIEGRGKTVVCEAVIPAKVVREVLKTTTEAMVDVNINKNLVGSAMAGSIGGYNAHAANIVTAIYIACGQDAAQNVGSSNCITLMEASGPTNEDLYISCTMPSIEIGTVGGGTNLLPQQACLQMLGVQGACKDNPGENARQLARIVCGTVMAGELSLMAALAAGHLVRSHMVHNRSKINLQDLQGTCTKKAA
Protocol: The inhibiting effect on HMG Co-A Reductase of representative examples of the 4-hydroxytetrahydropyran-2-one derivatives prepared in the above-discussed examples was measured in accordance with the method described in Journal of Biological Chemistry (J. Biol. Chem.) Vol. 234, page 2835 (1959) in order to investigate the inhibiting activity of each derivative in terms of the inhibiting ratio of the biosynthesis of cholesterol.

[2] = test system: rat brain homogenate; experiment: Anti-oxidation function: inhibition of automatic ABARTS reproduction of rat brain homogenate; format: biochemical; conditions: vitamin E as reference = 100
Protocol: The anti-oxidation function of some examples of the 4-hydroxytetrahydropyran-2-one derivatives prepared in the above-discussedexamples was measured as a reference of the inhibition function of the automatic ABARTS reproduction of the rat brain homogenate in accordance with the method described in Nippon Yakuri-shi 87, 427-434 (1986) by K. Shintomi et al.

Compound	Inhibiting Activity (Inhibiting Ratio of Biosynthesis of Cholesterol), relative value when the value of compactin is 100 [1]	Anti-oxidation Function [2]
Cc1c(O)c(C)c2c(c1CC[C@@H]1C[C@@H](O)CC(=O)O1)OC(C)(C)CC2 (relative stereo) [Compound No. 46, trans-(±)-6-[(6-hydroxy-2,2,5,7-tetramethyl)chroman-8-yl]ethyl-4-hydroxytetrahydropyran-2-one]	28	106
CC(=O)Oc1c(C)c(CC[C@H]2C[C@H](O)CC(=O)O2)c2c(c1C)CC(C)(C)O2 (racemic) [Compound No. 33, trans-(±)-6-(5-acetoxy-2,3-dihydro-2,2,4,6-tetramethylbenzo[b]furan-7-yl)ethyl-4-hydroxytetrahydropyran-2-one]	21	
Cc1c(O)c(C)c2c(c1CC[C@H]1C[C@H](O)CC(=O)O1)OC(C)(C)C2 (racemic) [Compound No. 14, trans-(±)-6-(2,3-dihydro-5-hydroxy-2,2,4,6-tetramethylbenzo[b]furan-7-yl)ethyl-4-hydroxytetrahydropyran-2-one]	11	106
CC(C)c1c(OCc2ccccc2)cc2c(c1CC[C@H]1C[C@H](O)CC(=O)O1)OC(C)(C)C2 (racemic) [Compound No. 154, trans-(±)-6-[5-benzyloxy-2,3-dihydro-2,2-dimethyl-6-(2-propyl)benzo[b]furan-7-yl]ethyl-4-hydroxytetrahydropyran-2-one]	250	
CC1(C)Cc2cc(OCc3ccccc3)c(C(C)(C)C)c(CC[C@H]3C[C@H](O)CC(=O)O3)c2O1 (racemic) [Compound No. 124, trans-(±)-6-[5-benzyloxy-6-(t-butyl)-2,3-dihydro-2,2-dimethylbenzo[b]furan-7-yl]ethyl-4-hydroxytetrahydropyran-2-one]	300	
Cc1c(CC[C@@H]2C[C@@H](O)CC(=O)O2)c2c(c(C)c1OC(=O)c1cccnc1)CC(C)(C)O2 (relative stereo) [Compound No. 31, trans-(±)-6-[2,3-dihydro-5-(pyridine-3-carboxy)-2,2,4,6-tetramethylbenzo[b]furan-7-yl]ethyl-4-hydroxytetrahydropyran-2-one]	90	
Cc1c(CC[C@@H]2C[C@@H](O)CC(=O)O2)c2c(c(C)c1OC(=O)c1cccnc1)CCC(C)(C)O2 (relative stereo) [Compound No. 52, trans-(±)-6-[[6-pyridine-3-carboxy)-2,2,5,7-tetramethyl]-chroman-8-yl]ethyl-4-hydroxytetrahydropyran-2-one]	18	19
Cc1c2c(c(CC[C@H]3C[C@H](O)CC(=O)O3)c(C(C)(C)C)c1OCc1ccccc1)OC(C)(C)C2 (racemic) [Compound No. 112, trans-(±)-6-[5-benzyloxy-6-(t-butyl)-2,3-dihydro-2,2,4-trimethylbenzo[b]furan-7-yl]ethyl-4-hydroxytetrahydropyran-2-one]	190	
CC(=O)Oc1c(C)c(CC[C@@H]2C[C@@H](O)CC(=O)O2)c2c(c1C)CCC(C)(C)O2 (relative stereo) [Compound No. 50, trans-(±)-6-[(6-acetoxy-2,2,5,7-tetramethyl)chroman-8-yl]ethyl-4-hydroxytetrahydropyran-2-one]	12	106
Cc1c2c(c(CC[C@H]3C[C@H](O)CC(=O)O3)c(C(C)C)c1OCc1ccccc1)OC(C)(C)C2 (racemic) [Compound No. 81, trans-(±)-6-[5-benzyloxy-2,3-dihydro-6-(2-propyl)-2,2,4-trimethylbenzo[b]furan-7-yl]ethyl-4-hydroxytetrahydropyran-2-one]	427	
Cc1c(CC[C@@H]2C[C@@H](O)CC(=O)O2)c2c(c(C)c1OCc1ccccc1)CCC(C)(C)O2 (relative stereo) [Compound No. 45]	39	
Cc1c(CC[C@@H]2C[C@@H](O)CC(=O)O2)c2c(c(C)c1OCc1ccccc1)CC(C)(C)O2 (relative stereo) [Compound No. 13, trans-(±)-6-(5-benzyloxy-2,3-dihydro-2,2,4,6-tetramethylbenzo[b]furan-7-ethyl-4-hydroxytetrahydropyran-2-one]	50	
Cc1c2c(c(CC[C@@H]3C[C@@H](O)CC(=O)O3)c(C(C)C)c1OC(=O)c1cccnc1)OC(C)(C)C2 (relative stereo) [Compound No. 156, trans-(±)-6-[2,3-dihydro-6-(2-propyl)-5-(pyridine-3-carboxy)-2,2,4-trimethylbenzo[b]furan-7-yl]ethyl-4-hydroxytetrahydropyran-2-one]	180	
Vitamin E [reference compound]		100

Source: patent publication US5149834A, “4-Hydroxytetrahydropyran-2-one derivatives” (Fujirebio Inc., priority 1990, dated 1992)
